Data set [1] relates to Puccinia recondita f. Sp. Tritici. Briefly: Puccinia recondita f. sp. tritici / wheat / leaf disc preventative (brown rust). The data set is classed as in vivo. To be noted: foliar, compared to untreated control, read-out: disease control. How it is done: Puccinia recondita f. Sp. Tritici/Wheat/Leaf Disc Preventative (Brown Rust) Wheat leaf segments cv. Kanzler were placed on agar in multiwell plates (24-well format) and sprayed with the formulated test compound or mixture composition diluted in water. The leaf disks were inoculated with a spore suspension of the fungus 1 day after application. The inoculated leaf segments were incubated at 19° C. and 75% rh under a light regime of 12 h light/12 h darkness in a climate cabinet and the activity of a compound or mixture composition was assessed as percent disease control compared to untreated when an appropriate level of disease damage appears in untreated check leaf segments (7-9 days after application).

Data set [2] has the same test system. Kind of data set: Puccinia recondita f. sp. tritici / wheat / leaf disc curative (brown rust). The class given is in vivo. To be noted: foliar, compared to untreated control, read-out: disease control. How it is done:
Puccinia recondita f. Sp. Tritici/Wheat/Leaf Disc Curative (Brown Rust)
Wheat leaf segments cv. Kanzler are placed on agar in multiwell plates (24-well format). The leaf segments are inoculated with a spore suspension of the fungus. Plates were stored in darkness at 19° C. and 75% rh. The formulated test compound or mixture composition diluted in water was applied 1 day after inoculation. The leaf segments were incubated at 19° C. and 75% rh under a light regime of 12 h light/12 h darkness in a climate cabinet and the activity of a compound or mixture composition was assessed as percent disease control compared to untreated when an appropriate level of disease damage appears in untreated check leaf segments (6-8 days after application).

The test system of data set [3] is Blumeria graminis f. Sp. Tritici (Erysiphe graminis f. Sp. Tritici). Kind of data set: Blumeria graminis f. sp. tritici / wheat / leaf disc preventative (powdery mildew on wheat). The data set is classed as in vivo. To be noted: foliar, compared to untreated control, read-out: disease control. How it is done: Blumeria graminis f. Sp. Tritici (Erysiphe graminis f. Sp. Tritici)/Wheat/Leaf Disc Preventative (Powdery Mildew on Wheat)
Wheat leaf segments cv. Kanzler were placed on agar in a multiwell plate (24-well format) and sprayed with the formulated test compound or mixture composition diluted in water. The leaf disks were inoculated by shaking powdery mildew infected plants above the test plates 1 day after application. The inoculated leaf disks were incubated at 20° C. and 60% rh under a light regime of 24 h darkness followed by 12 h light/12 h darkness in a climate chamber and the activity of a compound or mixture composition was assessed as percent disease control compared to untreated when an appropriate level of disease damage appears on untreated check leaf segments (6-8 days after application).

In another data set the test system is Phakopsora pachyrhizi. Briefly: Phakopsora pachyrhizi / soybean / preventative (soybean rust). The data set is classed as in vivo. To be noted: foliar, soybean leaf disc, compared to untreated control. As to the method:
Phakopsora pachyrhizi/Soybean/Preventative (Soybean Rust) Soybean leaf disks are placed on water agar in multiwell plates (24-well format) and sprayed with the formulated test compound diluted in water. One day after application leaf discs are inoculated by spraying a spore suspension on the lower leaf surface. After an incubation period in a climate cabinet of 24-36 hours in darkness at 20° C. and 75% rh leaf disc are kept at 20° C. with 12 h light/day and 75% rh. The activity of a compound is assessed as percent disease control compared to untreated when an appropriate level of disease damage appears in untreated check leaf disks (12-14 days after application).

As a reminder, the melting point is the temperature of the solid-liquid transition. Compound `C=C(C)CC(O)(c1cc(C)c(/N=C/N(C)C(C)C)cc1OC)C(F)(F)F` (centres unmarked) [Q.006, N′-[4-[1-hydroxy-3-methyl-1-(trifluoromethyl)but-3-enyl]-5-methoxy-2-methyl-phenyl]-N-isopropyl-N-methyl-formamidine] returned a melting point of 90 to 95 °C. The pest or weed control at 200 ppm in data set [1] is not below 80%. In addition, in data set [2], the pest or weed control at 200 ppm was not below 80%. The pest or weed control at 200 ppm in data set [3] is not below 80%. In the data set on Phakopsora pachyrhizi, this compound registered a pest or weed control at 200 ppm not below 80%.

`CCO/N=C(\C)CC(O)(c1cc(C)c(/N=C/N(C)CC)cc1OC)C(F)(F)F` (centres unmarked) [Q.001, N′-[4-[(3E)-3-ethoxyimino-1-hydroxy-1-(trifluoromethyl)butyl]-5-methoxy-2-methyl-phenyl]-N-ethyl-N-methyl-formamidine]: the pest or weed control at 200 ppm (in data set [1]; in data set [2]; in data set [3]; in the data set on Phakopsora pachyrhizi) was not below 80% each time.

In turn, `CCN(C)/C=N/c1cc(OC)c(C(O)(c2ccccc2C)C(F)(F)F)cc1C` (centres unmarked) [Q.009, N-ethyl-N′-[5-methoxy-2-methyl-4-[2,2,2-trifluoro-1-hydroxy-1-(o-tolyl)ethyl]phenyl]-N-methyl-formamidine] showed a melting point of 115 to 117 °C. Moreover, in data set [1], the pest or weed control at 200 ppm was not below 80%. Also, the pest or weed control at 200 ppm in data set [2] was not below 80%. Further, the pest or weed control at 200 ppm in data set [3] is not below 80%. The pest or weed control at 200 ppm in the data set on Phakopsora pachyrhizi is not below 80%.

For `CCN(C)/C=N/c1cc(OC)c(C(O)(COCC2CCC2)C(F)(F)F)cc1C` (centres unmarked) [Q.004, N′-[4-[1-(cyclobutylmethoxymethyl)-2,2,2-trifluoro-1-hydroxy-ethyl]-5-methoxy-2-methyl-phenyl]-N-ethyl-N-methyl-formamidine], the pest or weed control at 200 ppm (in data set [1]; in data set [2]; in data set [3]; in the data set with Phakopsora pachyrhizi) was not below 80% in each case.

`CCN(C)/C=N/c1cc(OC)c(C(O)(COC2CCCC2)C(F)(F)F)cc1C` (centres unmarked) [Q.005, N′-[4-[1-(cyclopentoxymethyl)-2,2,2-trifluoro-1-hydroxy-ethyl]-5-methoxy-2-methyl-phenyl]-N-ethyl-N-methyl-formamidine] returned a pest or weed control at 200 ppm in the data set on Phakopsora pachyrhizi not below 80%.

Regarding `CCCCC(O)(c1cc(C)c(/N=C/N(C)C(C)C)cc1OC)C(F)(F)F` (centres unmarked) [Q.007, N′-[4-[1-hydroxy-1-(trifluoromethyl)pentyl]-5-methoxy-2-methyl-phenyl]-N-isopropyl-N-methyl-formamidine], the pest or weed control at 200 ppm (in data set [1]; in data set [2]; in data set [3]; in the data set on Phakopsora pachyrhizi) was not below 80% each time.

Turning to `CCN(C)/C=N/c1cc(OC)c(C(O)(c2cc(F)cc(F)c2)C(F)(F)F)cc1C` (centres unmarked) [Q.010, N′-[4-[1-(3,5-difluorophenyl)-2,2,2-trifluoro-1-hydroxy-ethyl]-5-methoxy-2-methyl-phenyl]-N-ethyl-N-methyl-formamidine], the melting point lay in the range of 107 to 108 °C. Further, the pest or weed control at 200 ppm in data set [1] is not below 80%. Besides, the pest or weed control at 200 ppm in data set [2] was not below 80%. Besides, the pest or weed control at 200 ppm in data set [3] was not below 80%. The same compound showed a pest or weed control at 200 ppm in the data set with Phakopsora pachyrhizi not below 80%.

The compound `COc1cc(/N=C/N(C)C(C)C)c(C)cc1C(O)(C1CC1)C(F)(F)F` (centres unmarked) [Q.003, N′-[4-(1-cyclopropyl-2,2,2-trifluoro-1-hydroxy-ethyl)-5-methoxy-2-methyl-phenyl]-N-isopropyl-N-methyl-formamidine] displayed a melting point of 90 to 93 °C. The pest or weed control at 200 ppm in data set [1] was not below 80%. In addition, the pest or weed control at 200 ppm in data set [2] was not below 80%. Moreover, the pest or weed control at 200 ppm in data set [3] was not below 80%. The compound also yielded a pest or weed control at 200 ppm in the data set on Phakopsora pachyrhizi not below 80%.

`CCCCOCC(O)(c1cc(C)c(/N=C/N(C)CC)cc1OC)C(F)(F)F` (centres unmarked) [Q.002, N′-[4-[1-(butoxymethyl)-2,2,2-trifluoro-1-hydroxy-ethyl]-5-methoxy-2-methyl-phenyl]-N-ethyl-N-methyl-formamidine]: the pest or weed control at 200 ppm (in data set [1]; in data set [2]; in data set [3]; with Phakopsora pachyrhizi) was not below 80% throughout.

In turn, `COc1cc(/N=C/N(C)C(C)C)c(C)cc1C(O)(c1ccccc1)C(F)(F)F` (centres unmarked) [Q.008, N-isopropyl-N′-[5-methoxy-2-methyl-4-(2,2,2-trifluoro-1-hydroxy-1-phenyl-ethyl)phenyl]-N-methyl-formamidine] showed a melting point of 110 to 111 °C. Further, the pest or weed control at 200 ppm in data set [1] is not below 80%. Moreover, in data set [2], the pest or weed control at 200 ppm is not below 80%. The compound also came in with a pest or weed control at 200 ppm with Phakopsora pachyrhizi not below 80%.

The values are drawn from patent US11154058B2, “Fungicidal compositions” (SYNGENTA PARTICIPATIONS AG, priority 2017, dated 2021).
